Measurements taken from BigSolDB 2.1.

CO/C=C(/C(=O)OC)c1ccccc1Oc1cc(Oc2ccccc2C#N)ncn1
solubility (mole fraction)
Details	288.15 K	293.15 K	298.15 K	303.15 K	308.15 K	313.15 K	318.15 K	323.15 K	328.15 K
in ethanol	0.000747	0.000923	0.00118	0.00171	0.0022	0.00296	0.00422	0.0056	0.00786
in ethyl acetate	0.0246	0.0283	0.0319	0.0415	0.0473	0.059	0.0756	0.0879	0.108
in isobutanol	0.000441	0.000628	0.00084	0.00129	0.0017	0.00231	0.00324	0.00441	0.00571
in isopropanol	0.000339	0.000476	0.000649	0.00102	0.00134	0.00183	0.0026	0.00358	0.00452
in methanol	0.00135	0.00165	0.00205	0.0027	0.00368	0.00497	0.00683	0.0096	0.0144
in n-butanol	0.000514	0.000733	0.000955	0.00149	0.00185	0.00246	0.0034	0.00476	0.00635
in n-propanol	0.000654	0.000829	0.00108	0.00162	0.00207	0.00277	0.00387	0.00527	0.0072
